Laboratory results reported in patent US7128900B2, “Light-protection agents” (Merck Patent GmbH, priority 2002, dated 2006).
Values joined by “and” are separate entries in the source; they are usually repeats but may differ in a detail not shown here. Equal values may be shown once.

Experiment: UV absorption spectrum (UV-VIS) in 2-propanol
Type: physicochemical
Settings: for UV-vis λmax: several maxima listed; for UV absorption maximum λ / ε at the UV absorption maximum: in 2-propanol
Procedure: The UV-VIS spectrum was measured on a Varian Cary 100 biospectrophotometer fitted with a heated cell holder (concentration=0.001 g/100 ml of 2-propanol; cell thickness d=1 cm; wavelength range: 200 to 800 nm).
The UV-VIS spectrum was measured on a Varian Cary 100 biospectrophotometer fitted with a heated cell holder (concentration=0.001 g/ 100 ml of 2-propanol; cell thickness d=1 cm; wavelength range: 200 to 800 nm).

Row | UV-vis λmax (2-propanol, 1 mg/100 ml) | UV absorption maximum λ [nm] | ε at the UV absorption maximum | other results | SMILES
1 | 228 nm and 277 nm and 328 nm |  |  | UV-vis (e) at λmax 228 nm (2-propanol, 1 mg/100 ml, 228 nm): 23068; UV-vis (e) at λmax 277 nm (2-propanol, 1 mg/100 ml, 277 nm): 14805; UV-vis (e) at λmax 328 nm (2-propanol, 1 mg/100 ml, 328 nm): 30971 | O=c1cc(-c2ccc(O)cc2)oc2ccc(O)cc12 [Example 6, 2-(4′-hydroxyphenyl)-6-hydroxy-4-oxo-4H-1-benzopyran]
2 |  | 322 | 24790 |  | COc1ccc(-c2cc(=O)c3cc(O)ccc3o2)cc1 [Example 1, 4′-methoxy-6-hydroxyflavone]
3 |  | 329 | 27960 |  | O=c1cc(-c2ccc(O)cc2)oc2cc(O)ccc12 [Example 3, 4′,7-dihydroxyflavone]
4 | 281 nm and 324 nm |  |  | UV-vis (e) at λmax 281 nm (2-propanol, 1 mg/100 ml, 281 nm): 8267; UV-vis (e) at λmax 324 nm (2-propanol, 1 mg/100 ml, 324 nm): 16036 | COc1cc(-c2cc(=O)c3cc(O)c(O)cc3o2)cc(OC)c1OC [Example 5, 2-(3′,4′,5′-trimethoxyphenyl)-6,7-dihydroxy-4-oxo-4H-1-benzopyran]
5 |  | 318 | 37185 |  | COc1ccc(-c2cc(=O)c3ccc(OC4O[C@H](CO)[C@@H](O)[C@H](O)[C@H]4O)cc3o2)cc1 (stereo partly drawn) [Example 4, 4′-methoxy-7-β-glucosidylflavone]
